Results on 28 compounds are retold here after patent US8741897B2, “Glucocorticoid mimetics, methods of making them, pharmaceutical compositions and uses thereof” (Boehringer Ingelheim Pharmaceuticals Inc., priority 2003, dated 2014).

The test system of this experiment is glucocorticoid receptor function. The experiment is described as follows: one or more of the above assays (GR binding and glucocorticoid receptor cell assays: aromatase, IL-6, TAT, MMTV-Luc, IL-8, ICAM-Luc). It is filed as cell-based. The settings on record: assay not specified per compound.

Structures are written as SMILES.

As to `CC(C)(CC(O)(Cc1cc2cc(Cl)ncc2[nH]1)C(F)(F)F)c1cc(F)ccc1O` (stereo not shown) [2-[3-(5-Chloro-1H-pyrrolo[2,3-c]pyridin-2-ylmethyl)-4,4,4-trifluoro-3-hydroxy-1,1-dimethylbutyl]-4-fluorophenol], the “activity as agonists of the glucocorticoid receptor function in one or more of the above assays” value (shortened to “activity as agonists”) is on record as “potent agonists”.
As for `CN(C)c1cc2cc(CC(O)(CC(C)(C)c3ccc(F)cc3O)C(F)(F)F)[nH]c2cn1` (stereo not shown) [2-[3-(5-Dimethylamino-1H-pyrrolo[2,3-c]pyridin-2-ylmethyl)-4,4,4-trifluoro-3-hydroxy-1,1-dimethylbutyl]-5-fluorophenol], the entry is “potent agonists”.
For `CC(C)(CC(O)(Cc1cc2cnccc2[nH]1)C(F)F)c1cc(F)ccc1O` (stereo not shown) [2-[4,4-Difluoro-3-hydroxy-1,1-dimethyl-3-(1H-pyrrolo[3,2-c]pyridin-2-ylmethyl)butyl]-4-fluorophenol], the “activity as agonists” value is listed as “agonists”.
On to `CC(C)(CC(O)(Cc1cc2cc(C#N)ncc2[nH]1)C(F)(F)F)c1cc(Cl)cc2c1OCC2` (stereo not shown) [2-[4-(5-Chloro-2,3-dihydrobenzofuran-7-yl)-2-hydroxy-4-methyl-2-trifluoromethylpentyl]-1H-pyrrolo[2,3-c]pyridine-5-carbonitrile], for which the “activity as agonists” value is “potent agonists”.
`CC(C)(CC(O)(Cc1cc2nc(C(N)=O)ccc2[nH]1)C(F)(F)F)c1cc(Cl)cc2c1OCC2` (stereo not shown) [2-[4-(5-Chloro-2,3-dihydrobenzofuran-7-yl)-2-hydroxy-4-methyl-2-trifluoromethylpentyl]-1H-pyrrolo[3,2-b]pyridine-5-carboxylic acid amide]: the “activity as agonists” value was “potent agonists”.
Regarding `CC(C)(CC(O)(Cc1cc2c(C#N)cccc2[nH]1)C(F)(F)F)c1cc(F)ccc1O` (stereo not shown) [2-[4-(5-Fluoro-2-hydroxyphenyl)-2-hydroxy-4-methyl-2-trifluoromethylpentyl]-1H-indole-4-carbonitrile], the “activity as agonists” value is given as “potent agonists”.
On to `COc1ccc(F)cc1C(C)(C)CC(O)(Cc1cc2c(C#N)cccc2[nH]1)C(F)(F)F` (stereo not shown) [2-[4-(5-Fluoro-2-methoxyphenyl)-2-hydroxy-4-methyl-2-trifluoromethylpentyl]-1H-indole-4-carbonitrile], for which the “activity as agonists” value is given as “potent agonists”.
Regarding `Cc1ccc(F)cc1C(C)(C)CC(O)(Cc1cc2[nH]c(=O)ccc2[nH]1)C(F)(F)F` (stereo not shown) [2-[4-(5-Fluoro-2-methylphenyl)-2-hydroxy-4-methyl-2-trifluoromethylpentyl]-1,4-dihydropyrrolo[3,2-b]pyridin-5-one], the “activity as agonists” value is “potent agonists”.
Consider `CN(C)c1ccc(-c2ccc3[nH]c(CC(O)(CC(C)(C)c4cc(F)cc5c4OCC5)C(F)(F)F)cc3c2)cc1` (stereo not shown) [2-[5-(4-Dimethylaminophenyl)-1H-indol-2-ylmethyl]-1,1,1-trifluoro-4-(5-fluoro-2,3-dihydrobenzofuran-7-yl)-4-methylpentan-2-ol], for which the “activity as agonists” value is on record as “potent agonists”.
On to `CCN(C)c1cc2cc(CC(O)(CC(C)(C)c3cc(F)ccc3OC)C(F)(F)F)[nH]c2cn1` (stereo not shown) [2-[5-(Ethylmethylamino)-1H-pyrrolo[2,3-c]pyridin-2-ylmethyl]-1,1,1-trifluoro-4-(5-fluoro-2-methoxyphenyl)-4-methylpentan-2-ol], for which the “activity as agonists” value was “potent agonists”.
Turning to `CC(C)(CC(O)(Cc1cc2ccncc2[nH]1)C(F)(F)F)c1cc(-c2ccccc2)ccc1O` (stereo not shown) [3-[4,4,4-Trifluoro-3-hydroxy-1,1-dimethyl-3-(1H-pyrrolo[2,3-c]pyridin-2-ylmethyl)butyl]biphenyl-4-ol], the “activity as agonists” value is given as “potent agonists”.
As for `Cc1nccc2[nH]c(CC(O)(CC(C)(C)c3cc(-c4ccccc4)ccc3O)C(F)(F)F)cc12` (stereo not shown) [3-[4,4,4-Trifluoro-3-hydroxy-1,1-dimethyl-3-(4-methyl-1H-pyrrolo[3,2-c]pyridin-2-ylmethyl)butyl]biphenyl-4-ol], the entry is “potent agonists”; as for `CC(C)(CC(O)(Cc1cc2cc(-c3cccc(C#N)c3)ccc2[nH]1)C(F)(F)F)c1cc(F)cc2c1OCC2` (stereo not shown) [3-{2-[4-(5-Fluoro-2,3-dihydrobenzofuran-7-yl)-2-hydroxy-4-methyl-2-trifluoromethylpentyl]-1H-indol-5-yl}benzonitrile], “potent agonists”.
For the compound `CCN(C)c1cc2cc(CC(O)(CC(C)(C)c3cc(-c4ccccc4C#N)ccc3O)C(F)(F)F)[nH]c2cn1` (stereo not shown) [3′-{3-[5-(Ethylmethylamino)-1H-pyrrolo[2,3-c]pyridin-2-ylmethyl]-4,4,4-trifluoro-3-hydroxy-1,1-dimethylbutyl}-4′-hydroxybiphenyl-2-carbonitrile], the “activity as agonists” value is “potent agonists”.
Turning to `COc1ccc(-c2ccccc2Cl)cc1C(C)(C)CC(O)(Cc1cc2cc(N3CCOCC3)ncc2[nH]1)C(F)(F)F` (stereo not shown) [4-(2′-Chloro-4-methoxybiphenyl-3-yl)-1,1,1-trifluoro-4-methyl-2-(5-morpholin-4-yl-1H-pyrrolo[2,3-c]pyridin-2-ylmethyl)pentan-2-ol], the “activity as agonists” value is listed as “potent agonists”.
For `COc1ccc(-c2ccccc2Cl)cc1C(C)(C)CC(O)(Cc1cc2cc(N3CCCCC3)ncc2[nH]1)C(F)(F)F` (stereo not shown) [4-(2′-Chloro-4-methoxybiphenyl-3-yl)-1,1,1-trifluoro-4-methyl-2-(5-piperidin-1-yl-1H-pyrrolo[2,3-c]pyridin-2-ylmethyl)pentan-2-ol], the “activity as agonists” value is listed as “potent agonists”.
As for `CC(C)(CC(O)(Cc1cc2ccncc2[nH]1)C(F)(F)F)c1cccc(C2OCCCO2)c1` (stereo not shown) [4-(3-[1,3]Dioxan-2-ylphenyl)-1,1,1-trifluoro-4-methyl-2-(1H-pyrrolo[2,3-c]pyridin-2-ylmethyl)pentan-2-ol], the entry is “potent agonists”; as for `COc1ccc(Br)cc1C(C)(C)CC(O)(Cc1cc2cc(OC(C)C)ncc2[nH]1)C(F)(F)F` (stereo not shown) [4-(5-Bromo-2-methoxyphenyl)-1,1,1-trifluoro-2-(5-isopropoxy-1H-pyrrolo[2,3-c]pyridin-2-ylmethyl)-4-methylpentan-2-ol], “potent agonists”.
Consider `COc1ccc(Br)cc1C(C)(C)CC(O)(Cc1cc2ccncc2[nH]1)C(F)(F)F` (stereo not shown) [4-(5-Bromo-2-methoxyphenyl)-1,1,1-trifluoro-4-methyl-2-(1H-pyrrolo[2,3-c]pyridin-2-ylmethyl)pentan-2-ol], for which the “activity as agonists” value was “potent agonists”.
On to `COc1ccc(Br)cc1C(C)(C)CC(O)(Cc1cc2cc(N3CCOCC3)ncc2[nH]1)C(F)(F)F` (stereo not shown) [4-(5-Bromo-2-methoxyphenyl)-1,1,1-trifluoro-4-methyl-2-(5-morpholin-4-yl-1H-pyrrolo[2,3-c]pyridin-2-ylmethyl)pentan-2-ol], for which the “activity as agonists” value is on record as “potent agonists”.
For `COc1ccc(Br)cc1C(C)(C)CC(O)(Cc1cc2cc(N3CCCCC3)ncc2[nH]1)C(F)(F)F` (stereo not shown) [4-(5-Bromo-2-methoxyphenyl)-1,1,1-trifluoro-4-methyl-2-(5-piperidin-1-yl-1H-pyrrolo[2,3-c]pyridin-2-ylmethyl)pentan-2-ol], the “activity as agonists” value is reported as “potent agonists”.
`COc1ccc(Br)cc1C(C)(C)CC(O)(Cc1cc2cc(Cl)ncc2[nH]1)C(F)(F)F` (stereo not shown) [4-(5-Bromo-2-methoxyphenyl)-2-(5-chloro-1H-pyrrolo[2,3-c]pyridin-2-ylmethyl)-1,1,1-trifluoro-4-methylpentan-2-ol]: the “activity as agonists” value was “potent agonists”.
As for `COc1ccc(Br)cc1C(C)(C)CC(O)(Cc1cc2cc(N(C)C)ncc2[nH]1)C(F)(F)F` (stereo not shown) [4-(5-Bromo-2-methoxyphenyl)-2-(5-dimethylamino-1H-pyrrolo[2,3-c]pyridin-2-ylmethyl)-1,1,1-trifluoro-4-methylpentan-2-ol], the “activity as agonists” value is “potent agonists”.
Consider `CC(C)c1ncc2[nH]c(CC(O)(CC(C)(C)c3cc(Cl)cc4c3OCC4)C(F)(F)F)cc2n1` (stereo not shown) [4-(5-Chloro-2,3-dihydrobenzofuran-7-yl)-1,1,1-trifluoro-2-(2-isopropyl-5H-pyrrolo[3,2-d]pyrimidin-6-ylmethyl)-4-methylpentan-2-ol], for which the “activity as agonists” value is given as “potent agonists”.
Consider `CC(C)(CC(O)(Cc1cc2nc(CO)ccc2[nH]1)C(F)(F)F)c1cc(Cl)cc2c1OCC2` (stereo not shown) [4-(5-Chloro-2,3-dihydrobenzofuran-7-yl)-1,1,1-trifluoro-2-(5-hydroxymethyl-1H-pyrrolo[3,2-b]pyridin-2-ylmethyl)-4-methylpentan-2-ol], for which the “activity as agonists” value was “potent agonists”.
With `COc1ccc2[nH]c(CC(O)(CC(C)(C)c3cc(Cl)cc4c3OCC4)C(F)(F)F)cc2n1` (stereo not shown) [4-(5-Chloro-2,3-dihydrobenzofuran-7-yl)-1,1,1-trifluoro-2-(5-methoxy-1H-pyrrolo[3,2-b]pyridin-2-ylmethyl)-4-methylpentan-2-ol], the “activity as agonists” value is listed as “potent agonists”.
As for `CC(C)(CC(O)(Cc1cc2nc(-c3ccccc3)ncc2[nH]1)C(F)(F)F)c1cc(Cl)cc2c1OCC2` (stereo not shown) [4-(5-Chloro-2,3-dihydrobenzofuran-7-yl)-1,1,1-trifluoro-4-methyl-2-(2-phenyl-5H-pyrrolo[3,2-d]pyrimidin-6-ylmethyl)pentan-2-ol], the entry is “potent agonists”.
For `CC(C)(CC(O)(Cc1cc2nc(N3CCCC3)ncc2[nH]1)C(F)(F)F)c1cc(Cl)cc2c1OCC2` (stereo not shown) [4-(5-Chloro-2,3-dihydrobenzofuran-7-yl)-1,1,1-trifluoro-4-methyl-2-(2-pyrrolidin-1-yl-5H-pyrrolo[3,2-d]pyrimidin-6-ylmethyl)pentan-2-ol], the “activity as agonists” value is “potent agonists”.
